TGI data for 16 compounds are collected here from PubChem BioAssay (NCI).

Some test systems named below: PC-3 prostate; SR leukemia; MDA-N; MOLT-4 leukemia; BT-549 breast; OVCAR-8 ovarian; HCT-15 colon; EKVX NSCLC; SNB-75 CNS; SK-MEL-28 melanoma; A498 renal; CCRF-CEM leukemia; SN12C renal.
Assay in all cases: DTP human tumour cell line panel, 48 h

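Cultured in 96-well plates, cells were exposed to test compound for 48 hours across five concentrations. TGI: total growth inhibition.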 Where only a bound is given, the exact number is not on record here.

Regarding `COC(=O)c1ccccc1CC1Cc2ccc3c(c2C1=O)CCCC3` (stereo unspecified), the TGI with PC-3 prostate is more than 100 µM; in the experiment on SR leukemia, 24.5 µM; with MDA-N, more than 100 µM; in the experiment with MOLT-4 leukemia, 46.5 µM; in the experiment on BT-549 breast, more than 100 µM; in the experiment on OVCAR-8 ovarian, more than 100 µM. Further, the TGI in the experiment on HCT-15 colon was more than 100 µM; with EKVX NSCLC, more than 100 µM; with SNB-75 CNS, more than 100 µM; in the experiment with SK-MEL-28 melanoma it was more than 100 µM; in the experiment with A498 renal, more than 100 µM; in the experiment on CCRF-CEM leukemia it was more than 86.5 µM. The TGI in the experiment with SN12C renal was more than 100 µM.

For the compound `c1csc(-c2ccc(-c3cccc4nsnc34)s2)c1`, the TGI is more than 100 µM in the experiment with PC-3 prostate; 52.2 µM with SR leukemia; more than 100 µM with MDA-N; 39.2 µM in the experiment on MOLT-4 leukemia; more than 100 µM with BT-549 breast; more than 100 µM with OVCAR-8 ovarian. The TGI in the experiment on HCT-15 colon is more than 100 µM; in the experiment with EKVX NSCLC, more than 100 µM; in the experiment on SNB-75 CNS, more than 100 µM; with SK-MEL-28 melanoma it was more than 100 µM; in the experiment on A498 renal it was more than 100 µM; with CCRF-CEM leukemia, 69.3 µM. This compound also displayed a TGI with SN12C renal of more than 100 µM.

For the compound `COC(=O)C1SC(SC)=NC12c1ccccc1Nc1ccccc12` (stereo unspecified), the TGI is 87 µM in the experiment on PC-3 prostate; 53.4 µM with SR leukemia; 70.6 µM in the experiment on MDA-N; 71.1 µM in the experiment with MOLT-4 leukemia; 58.6 µM in the experiment with BT-549 breast; more than 100 µM in the experiment on OVCAR-8 ovarian. Besides, the TGI was more than 100 µM with HCT-15 colon; more than 100 µM with EKVX NSCLC; more than 100 µM in the experiment with SNB-75 CNS; 48.5 µM in the experiment on SK-MEL-28 melanoma; more than 100 µM in the experiment with A498 renal; more than 100 µM in the experiment with CCRF-CEM leukemia. In the experiment with SN12C renal, this compound yielded a TGI of more than 100 µM.

Turning to `CC1(C)OC(=O)N(c2ccccc2)C12C=Cc1cc([N+](=O)[O-])cc([N+](=O)[O-])c1O2` (stereo unspecified), the TGI in the experiment with PC-3 prostate, with SR leukemia, in the experiment on MDA-N, in the experiment on MOLT-4 leukemia, with BT-549 breast and with OVCAR-8 ovarian was more than 100 µM throughout. The TGI in the experiment on HCT-15 colon, in the experiment with EKVX NSCLC, with SNB-75 CNS, in the experiment with SK-MEL-28 melanoma, with A498 renal and in the experiment on CCRF-CEM leukemia was more than 100 µM throughout. The compound also gave a TGI in the experiment on SN12C renal of more than 100 µM.

Take `COc1ccc(C2CC(c3c(O)ccc4ccccc34)=NN2C(C)=O)cc1OC` (stereo unspecified): the TGI with PC-3 prostate was more than 100 µM; with SR leukemia, 40.6 µM; in the experiment with MDA-N, 56.4 µM; in the experiment on MOLT-4 leukemia, 53.6 µM; with BT-549 breast it was 43.9 µM; in the experiment with OVCAR-8 ovarian, more than 100 µM. Further, the TGI is more than 100 µM with HCT-15 colon; more than 100 µM in the experiment with SNB-75 CNS; more than 100 µM in the experiment with SK-MEL-28 melanoma; 63.4 µM in the experiment on A498 renal; 36.6 µM with CCRF-CEM leukemia; more than 100 µM in the experiment with SN12C renal.

In the case of `O=c1[nH]c(Nc2cccc(CC(F)(F)F)c2)nc2nc[nH]c12`, the TGI with PC-3 prostate, in the experiment with SR leukemia, with MDA-N, in the experiment with BT-549 breast, in the experiment with OVCAR-8 ovarian and in the experiment with HCT-15 colon was more than 100 µM throughout. Besides, the TGI in the experiment with EKVX NSCLC, with SNB-75 CNS, in the experiment on SK-MEL-28 melanoma, in the experiment with A498 renal, with CCRF-CEM leukemia and in the experiment on SN12C renal was more than 100 µM each time.

Regarding `CCCCCCCCCCCCCCNC(=O)CCC(NC(=O)c1ccc(N(C)Cc2cnc3nc(N)nc(N)c3n2)cc1)C(=O)NCCCCCCCCCCCCCC` (stereo unspecified), the TGI in the experiment on PC-3 prostate was determined as 22.5 µM; in the experiment with SR leukemia it was 21.8 µM; in the experiment on MDA-N it was 21.9 µM; with MOLT-4 leukemia, 27.3 µM; with BT-549 breast, 41.1 µM; in the experiment on OVCAR-8 ovarian, 39.8 µM. Moreover, the TGI was 28.2 µM in the experiment on HCT-15 colon; more than 100 µM in the experiment on EKVX NSCLC; 34.8 µM in the experiment on SNB-75 CNS; 40.7 µM in the experiment on SK-MEL-28 melanoma; 34.5 µM in the experiment on A498 renal; more than 31.6 µM in the experiment on CCRF-CEM leukemia. The compound further came in with a TGI with SN12C renal of 33.8 µM.

As for `CC(C)(C)N1CSC(=S)N(Cc2ccco2)C1`, the TGI came to 13.7 µM in the experiment on PC-3 prostate; 3.55 µM in the experiment on SR leukemia; 16.5 µM in the experiment on MDA-N; 5.72 µM in the experiment with MOLT-4 leukemia; 9.62 µM in the experiment on BT-549 breast; 5.63 µM with OVCAR-8 ovarian. In addition, the TGI in the experiment with HCT-15 colon was found to be 10.6 µM; in the experiment with EKVX NSCLC, 30.2 µM; in the experiment with SNB-75 CNS it was 26.4 µM; in the experiment on SK-MEL-28 melanoma, 10.8 µM; with A498 renal, 26.7 µM; with CCRF-CEM leukemia, 4.03 µM. This compound registered a TGI in the experiment on SN12C renal of 16.7 µM.

`N#CC1(C#N)N[C@@H](c2ccsc2)[C@H]2C(=O)N(c3ccccc3)C(=O)[C@H]21`: the TGI was more than 100 µM in the experiment with PC-3 prostate; 78.7 µM in the experiment with SR leukemia; more than 100 µM in the experiment with MDA-N; more than 100 µM with MOLT-4 leukemia; more than 100 µM with BT-549 breast; more than 100 µM in the experiment on OVCAR-8 ovarian. Moreover, the TGI in the experiment with EKVX NSCLC, with SNB-75 CNS, in the experiment on SK-MEL-28 melanoma, in the experiment with A498 renal and in the experiment on SN12C renal was more than 100 µM in each case.

`Nc1nc(SCCc2ccccc2)c2[nH]cnc2n1`: the TGI in the experiment on PC-3 prostate, in the experiment with SR leukemia, in the experiment on MDA-N, in the experiment with MOLT-4 leukemia, in the experiment on BT-549 breast and in the experiment with OVCAR-8 ovarian was more than 100 µM each time. The TGI in the experiment with HCT-15 colon is more than 100 µM; in the experiment with EKVX NSCLC, 78.8 µM; in the experiment on SNB-75 CNS, more than 100 µM; with SK-MEL-28 melanoma, more than 100 µM; in the experiment with A498 renal, 61 µM; with CCRF-CEM leukemia, more than 100 µM. The same compound yielded a TGI with SN12C renal of more than 100 µM.

Take `C=CCN1C[C@H](C)N([C@H](c2ccc(C(=O)NC(CC)CC)cc2)c2cccc(OC)c2)C[C@H]1C`: the TGI is more than 100 µM with PC-3 prostate; 44.4 µM in the experiment with SR leukemia; more than 100 µM with MDA-N; more than 100 µM in the experiment with MOLT-4 leukemia; 99.6 µM in the experiment with BT-549 breast; more than 100 µM with OVCAR-8 ovarian. For the same compound, the TGI in the experiment on HCT-15 colon is more than 100 µM; in the experiment with EKVX NSCLC, more than 100 µM; in the experiment on SNB-75 CNS, more than 100 µM; with A498 renal, 63.3 µM; with CCRF-CEM leukemia, more than 100 µM; with SN12C renal it was more than 100 µM.

Take `C[C@@H](NC(=O)[C@@H]1C[C@]1(C)COC(=O)c1cc([N+](=O)[O-])cc([N+](=O)[O-])c1)c1cccc2ccccc12`: the TGI with PC-3 prostate, in the experiment on SR leukemia, with MDA-N, in the experiment with MOLT-4 leukemia, in the experiment with BT-549 breast and in the experiment with OVCAR-8 ovarian was more than 100 µM each time. The TGI in the experiment on HCT-15 colon, in the experiment with EKVX NSCLC, in the experiment with SNB-75 CNS, with SK-MEL-28 melanoma, in the experiment with A498 renal and with CCRF-CEM leukemia was more than 100 µM throughout. This compound also returned a TGI with SN12C renal of more than 100 µM.

As to `Cc1ccc(N=NC(=Nc2ccccc2)c2ccc(N(CCC#N)CCC#N)cc2)cc1`, the TGI is 59.9 µM in the experiment on PC-3 prostate; more than 100 µM with SR leukemia; more than 100 µM with MDA-N; more than 100 µM with MOLT-4 leukemia; 47.3 µM in the experiment with BT-549 breast; more than 100 µM in the experiment with OVCAR-8 ovarian. In addition, the TGI in the experiment with HCT-15 colon, in the experiment on EKVX NSCLC, in the experiment with SNB-75 CNS, in the experiment with SK-MEL-28 melanoma, in the experiment with A498 renal and with CCRF-CEM leukemia was more than 100 µM in each case. In addition, in the experiment with SN12C renal, the TGI was more than 100 µM.

Take `CCCCCCc1cc2cc(-c3csc(CC#N)n3)c(=O)oc2cc1O`: the TGI is more than 100 µM in the experiment with PC-3 prostate; more than 100 µM in the experiment on SR leukemia; more than 100 µM with MDA-N; more than 100 µM in the experiment on MOLT-4 leukemia; more than 60.2 µM in the experiment with BT-549 breast; more than 100 µM in the experiment on OVCAR-8 ovarian. Further, the TGI with HCT-15 colon, in the experiment with EKVX NSCLC, in the experiment on SNB-75 CNS, in the experiment on SK-MEL-28 melanoma, in the experiment on A498 renal and with CCRF-CEM leukemia was more than 100 µM throughout. Moreover, the TGI with SN12C renal is more than 100 µM.

With `COc1cc(C(=O)N(C(=S)OCc2ccccn2)c2ccccc2)cc(OC)c1OC`, the TGI in the experiment on PC-3 prostate was more than 100 µM; in the experiment with SR leukemia it was 49 µM; with MDA-N, more than 100 µM; with MOLT-4 leukemia, more than 100 µM; in the experiment with BT-549 breast, more than 100 µM; with OVCAR-8 ovarian, more than 100 µM. In addition, the TGI in the experiment on HCT-15 colon was more than 100 µM; in the experiment on EKVX NSCLC, 79.9 µM; with SK-MEL-28 melanoma, more than 100 µM; in the experiment with A498 renal, more than 100 µM; in the experiment with CCRF-CEM leukemia, more than 100 µM; with SN12C renal, more than 100 µM.

Take `ClCCN1CCC2(CC1)SSC1(CCN(CCCl)CC1)S2`: the TGI in the experiment with PC-3 prostate, with SR leukemia, in the experiment on MDA-N, with MOLT-4 leukemia, in the experiment on BT-549 breast and with OVCAR-8 ovarian was more than 100 µM in each case. Also, the TGI in the experiment on HCT-15 colon was more than 100 µM; with SNB-75 CNS it was more than 100 µM; in the experiment on SK-MEL-28 melanoma, more than 100 µM; in the experiment on A498 renal, more than 100 µM; in the experiment on CCRF-CEM leukemia, 55.6 µM; with SN12C renal it was 72.8 µM.
